Experiments:
[1] = target: Baculoviral IAP repeat-containing protein 2/Cellular retinoic acid-binding protein 2 (Homo sapiens, UniProt P29373+Q13490); test: Protac activity at cIAP1 (unknown origin)/CRABP-II (unknown origin) assessed as protein degradation
[2] = target: Baculoviral IAP repeat-containing protein 2/E3 ubiquitin-protein ligase XIAP/Breakpoint cluster region protein/Tyrosine-protein kinase ABL1 (Homo sapiens, UniProt P00519+P11274+P98170+Q13490); test: Protac activity at IAP/BCR-ABL in human K562 cells assessed as induction of BCR-ABL protein degradation measured after 6 hrs by Western blot analysis; format: cell-based
[3] = target: E3 ubiquitin-protein ligase XIAP/Tyrosine-protein kinase ABL1/Breakpoint cluster region protein (Homo sapiens, UniProt P00519+P11274+P98170); test: Protac activity at XIAP/BCR-ABL in human K562 cells assessed as induction of BCR-ABL protein degradation measured after 6 hrs by Western blot analysis; format: cell-based
Sequence of E3 ubiquitin-protein ligase XIAP/Tyrosine-protein kinase ABL1/Breakpoint cluster region protein (P00519 whole entry): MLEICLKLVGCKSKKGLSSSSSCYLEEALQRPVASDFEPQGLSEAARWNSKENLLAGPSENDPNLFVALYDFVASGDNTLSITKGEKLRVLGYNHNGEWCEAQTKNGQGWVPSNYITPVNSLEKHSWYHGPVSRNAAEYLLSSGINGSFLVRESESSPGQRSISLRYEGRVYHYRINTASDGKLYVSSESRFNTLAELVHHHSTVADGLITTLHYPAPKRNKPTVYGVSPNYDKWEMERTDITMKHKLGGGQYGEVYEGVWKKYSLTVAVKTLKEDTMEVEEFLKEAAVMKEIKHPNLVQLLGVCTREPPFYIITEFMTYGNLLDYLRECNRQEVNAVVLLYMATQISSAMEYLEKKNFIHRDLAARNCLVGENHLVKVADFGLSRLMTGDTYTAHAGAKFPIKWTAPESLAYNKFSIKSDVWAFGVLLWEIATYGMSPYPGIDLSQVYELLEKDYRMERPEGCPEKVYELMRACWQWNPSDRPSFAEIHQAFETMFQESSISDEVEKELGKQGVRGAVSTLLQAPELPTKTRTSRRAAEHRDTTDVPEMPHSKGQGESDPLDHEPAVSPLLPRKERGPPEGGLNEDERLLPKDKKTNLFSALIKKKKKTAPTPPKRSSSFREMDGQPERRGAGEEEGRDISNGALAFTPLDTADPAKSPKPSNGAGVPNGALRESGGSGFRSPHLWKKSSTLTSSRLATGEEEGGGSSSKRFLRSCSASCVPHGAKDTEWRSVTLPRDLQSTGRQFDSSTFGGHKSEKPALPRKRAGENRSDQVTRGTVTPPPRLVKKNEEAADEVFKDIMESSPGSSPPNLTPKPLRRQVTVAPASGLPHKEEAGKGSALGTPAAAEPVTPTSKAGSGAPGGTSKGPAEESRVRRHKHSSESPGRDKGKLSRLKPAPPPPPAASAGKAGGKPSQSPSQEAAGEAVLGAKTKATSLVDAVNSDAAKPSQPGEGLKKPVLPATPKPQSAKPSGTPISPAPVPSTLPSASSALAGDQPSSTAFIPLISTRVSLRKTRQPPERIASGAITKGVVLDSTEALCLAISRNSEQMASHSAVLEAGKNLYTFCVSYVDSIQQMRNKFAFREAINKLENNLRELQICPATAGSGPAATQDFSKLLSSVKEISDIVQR
Sequence of E3 ubiquitin-protein ligase XIAP/Tyrosine-protein kinase ABL1/Breakpoint cluster region protein (P98170 whole entry): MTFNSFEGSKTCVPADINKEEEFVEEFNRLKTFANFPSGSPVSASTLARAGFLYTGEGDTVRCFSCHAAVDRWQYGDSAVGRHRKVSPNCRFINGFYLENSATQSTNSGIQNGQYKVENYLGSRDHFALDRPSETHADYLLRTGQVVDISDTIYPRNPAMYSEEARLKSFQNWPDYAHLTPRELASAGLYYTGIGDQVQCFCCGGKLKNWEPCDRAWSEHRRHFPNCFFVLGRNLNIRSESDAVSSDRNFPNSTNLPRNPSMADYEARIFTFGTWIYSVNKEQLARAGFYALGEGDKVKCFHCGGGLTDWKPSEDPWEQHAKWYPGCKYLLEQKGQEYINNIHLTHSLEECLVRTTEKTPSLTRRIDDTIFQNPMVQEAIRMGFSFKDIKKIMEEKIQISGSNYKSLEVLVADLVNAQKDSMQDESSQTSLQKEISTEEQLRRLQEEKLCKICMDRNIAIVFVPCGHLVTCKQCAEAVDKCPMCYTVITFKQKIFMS
Sequence of E3 ubiquitin-protein ligase XIAP/Tyrosine-protein kinase ABL1/Breakpoint cluster region protein (P11274 whole entry): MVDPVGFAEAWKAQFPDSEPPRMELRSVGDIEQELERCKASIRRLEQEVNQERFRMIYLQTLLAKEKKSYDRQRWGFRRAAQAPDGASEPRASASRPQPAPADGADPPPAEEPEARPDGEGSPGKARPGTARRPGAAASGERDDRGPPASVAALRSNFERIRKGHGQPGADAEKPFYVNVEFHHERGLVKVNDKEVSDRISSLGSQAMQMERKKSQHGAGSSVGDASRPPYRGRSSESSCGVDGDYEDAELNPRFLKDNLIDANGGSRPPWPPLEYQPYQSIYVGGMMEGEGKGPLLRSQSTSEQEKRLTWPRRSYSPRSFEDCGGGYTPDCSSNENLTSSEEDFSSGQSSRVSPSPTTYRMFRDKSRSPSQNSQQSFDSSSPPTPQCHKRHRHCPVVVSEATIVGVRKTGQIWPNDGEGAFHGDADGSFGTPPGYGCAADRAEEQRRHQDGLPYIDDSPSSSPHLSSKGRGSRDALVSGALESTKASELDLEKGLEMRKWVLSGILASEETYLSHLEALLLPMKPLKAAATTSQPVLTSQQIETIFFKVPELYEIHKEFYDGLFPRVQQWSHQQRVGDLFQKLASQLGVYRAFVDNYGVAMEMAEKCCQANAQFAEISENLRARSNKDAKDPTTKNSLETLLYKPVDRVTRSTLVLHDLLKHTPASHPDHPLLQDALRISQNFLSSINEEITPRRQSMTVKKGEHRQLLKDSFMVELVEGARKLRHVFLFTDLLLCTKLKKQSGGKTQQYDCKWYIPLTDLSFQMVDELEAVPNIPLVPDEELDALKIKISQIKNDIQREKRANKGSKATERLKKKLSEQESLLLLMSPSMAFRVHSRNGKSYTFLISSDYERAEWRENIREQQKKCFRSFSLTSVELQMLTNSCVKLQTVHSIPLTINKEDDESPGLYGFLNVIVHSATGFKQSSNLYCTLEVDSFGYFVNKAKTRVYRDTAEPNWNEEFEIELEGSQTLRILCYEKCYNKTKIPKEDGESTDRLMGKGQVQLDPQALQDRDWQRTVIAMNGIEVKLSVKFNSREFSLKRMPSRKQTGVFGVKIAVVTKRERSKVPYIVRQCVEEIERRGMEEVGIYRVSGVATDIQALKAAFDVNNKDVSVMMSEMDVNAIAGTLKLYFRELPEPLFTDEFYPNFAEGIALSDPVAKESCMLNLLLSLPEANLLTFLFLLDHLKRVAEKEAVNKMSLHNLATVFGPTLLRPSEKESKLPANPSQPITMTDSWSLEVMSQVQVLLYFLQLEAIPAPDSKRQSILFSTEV

[4] = target: Estrogen receptor/E3 ubiquitin-protein ligase XIAP (Homo sapiens, UniProt P03372+P98170); test: Protac activity at XIAP (unknown origin)/ERalpha (unknown origin) assessed as protein degradation; format: protein assay
Sequence of Estrogen receptor/E3 ubiquitin-protein ligase XIAP (P03372 whole entry): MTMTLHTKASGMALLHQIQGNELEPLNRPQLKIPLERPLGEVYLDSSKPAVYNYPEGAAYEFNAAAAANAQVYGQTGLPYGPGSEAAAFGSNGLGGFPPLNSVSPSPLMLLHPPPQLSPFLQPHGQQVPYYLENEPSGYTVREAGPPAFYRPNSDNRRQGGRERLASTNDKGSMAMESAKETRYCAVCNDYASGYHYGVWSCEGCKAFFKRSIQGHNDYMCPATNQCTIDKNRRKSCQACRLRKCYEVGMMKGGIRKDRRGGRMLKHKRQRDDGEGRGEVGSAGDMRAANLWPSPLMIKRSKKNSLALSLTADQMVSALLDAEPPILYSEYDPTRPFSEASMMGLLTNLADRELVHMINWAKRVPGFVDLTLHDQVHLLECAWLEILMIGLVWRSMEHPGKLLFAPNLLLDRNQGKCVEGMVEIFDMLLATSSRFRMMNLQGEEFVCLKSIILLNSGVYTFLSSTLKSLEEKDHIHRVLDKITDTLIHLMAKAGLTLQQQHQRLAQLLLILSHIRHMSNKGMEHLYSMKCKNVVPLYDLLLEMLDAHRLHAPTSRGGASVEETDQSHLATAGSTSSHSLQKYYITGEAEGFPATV
Sequence of Estrogen receptor/E3 ubiquitin-protein ligase XIAP (P98170 whole entry): as the sequence (P98170 whole entry) above

Sequence of Baculoviral IAP repeat-containing protein 2/Cellular retinoic acid-binding protein 2 (P29373 whole entry): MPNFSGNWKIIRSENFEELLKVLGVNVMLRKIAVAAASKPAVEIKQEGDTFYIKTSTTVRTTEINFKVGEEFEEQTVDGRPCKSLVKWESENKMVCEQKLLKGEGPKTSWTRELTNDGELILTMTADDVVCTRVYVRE
Sequence of Baculoviral IAP repeat-containing protein 2/Cellular retinoic acid-binding protein 2 (Q13490 whole entry): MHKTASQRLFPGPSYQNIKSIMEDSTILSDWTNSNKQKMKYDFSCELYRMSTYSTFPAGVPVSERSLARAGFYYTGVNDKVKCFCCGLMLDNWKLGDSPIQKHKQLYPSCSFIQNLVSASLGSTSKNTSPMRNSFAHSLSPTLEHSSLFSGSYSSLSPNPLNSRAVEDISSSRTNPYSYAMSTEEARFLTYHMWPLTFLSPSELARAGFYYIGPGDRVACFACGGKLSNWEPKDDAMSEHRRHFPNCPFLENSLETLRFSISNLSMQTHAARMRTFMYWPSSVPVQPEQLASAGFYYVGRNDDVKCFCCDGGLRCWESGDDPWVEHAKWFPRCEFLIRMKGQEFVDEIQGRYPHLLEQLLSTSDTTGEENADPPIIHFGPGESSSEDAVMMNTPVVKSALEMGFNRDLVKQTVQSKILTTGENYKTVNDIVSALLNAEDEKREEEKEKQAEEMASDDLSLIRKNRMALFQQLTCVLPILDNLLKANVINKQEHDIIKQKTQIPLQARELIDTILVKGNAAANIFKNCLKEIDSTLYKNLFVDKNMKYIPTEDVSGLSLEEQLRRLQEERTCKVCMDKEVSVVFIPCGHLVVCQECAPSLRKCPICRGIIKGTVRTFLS

CC1=C(/C=C/C(C)=C/C=C/C(C)=C/C(=O)O)C(C)(C)CC/C1=N\OCC(=O)NCCOCCOCCOC(=O)[C@H](CC(C)C)NC(=O)[C@@H](O)[C@H](N)Cc1ccccc1
EC50 [1]: ≥ 1000 nM

CN[C@@H](C)C(=O)N[C@H](C(=O)N1CCC[C@H]1c1nc(C(=O)c2cccc(OCCOCCOCCOCC(=O)N3CCN(c4cc(Nc5ncc(C(=O)Nc6c(C)cccc6Cl)s5)nc(C)n4)CC3)c2)cs1)C1CCCCC1
EC50 [2]: < 100 nM | EC50 [3]: < 100 nM

CC/C(=C(\c1ccc(O)cc1)c1ccc(OCCN(C)C(=O)COCCOCCOCc2cccc(O[C@H]3C[C@@H](C(=O)N[C@@H]4CCCc5ccccc54)N(C(=O)[C@@H](NC(=O)[C@H](C)NC)C4CCCCC4)C3)c2)cc1)c1ccccc1
EC50 [4]: < 100 nM

CC/C(=C(\c1ccc(O)cc1)c1ccc(OCCN(C)C(=O)COCCCCOc2cccc(C(=O)c3csc([C@@H]4CCCN4C(=O)[C@@H](NC(=O)[C@H](C)NC)C4CCCCC4)n3)c2)cc1)c1ccccc1
EC50 [4]: < 100 nM

— ChEMBL document CHEMBL5241064, “Specific non-genetic IAP-based protein erasers (SNIPERs) as a potential therapeutic strategy” (Eur J Med Chem, 2021)
